US11040963B2 (priority 2017, dated 2021)

Columns and labels:
[1] = target: HA H5 A/Vietnam/1203/04 (Influenza A virus (A/Vietnam/1203/2004(H5N1)), UniProt Q5EP31); experiment: biochemical; details: Competition binding (AlphaLISA), pIC50 H5 A/Vietnam/1203/04
H1N1 A/PR/8/34-MA = experiment: microbe, parasite or virus in culture; format: cell-based, influenza A virus; details: Influenza A virus, MDCK, 96 h, read-out: Virus neutralization assay (VNA), pEC50 H1N1 A/PR/8/34-MA (converted)
[2] = system: H1N1 A/New Caledonia/20/99; experiment: microbe, parasite or virus in culture; format: cell-based, influenza A virus; details: for EC50: Influenza A virus, H1N1, MDCK, 96 h, read-out: Virus neutralization assay (VNA), pEC50 H1N1 A/New Caledonia/20/99 (converted)
H1N1 A/California/07/09 = experiment: microbe, parasite or virus in culture; format: cell-based, influenza A virus; details: for EC50: Influenza A virus, H1N1, MDCK, 96 h, read-out: Virus neutralization assay (VNA), pEC50 H1N1 A/California/07/09 (converted)
in vitro = details: dog, Cytotoxicity (pCC50) MDCK
H5N1 A/Vietnam/1203/04 = experiment: microbe, parasite or virus in culture; format: cell-based, influenza A virus; details: 96 h, average of repeats; for EC50: Influenza A virus, H5N1, MDCK, read-out: Virus neutralization assay (VNA), pEC50 H5N1 A/Vietnam/1203/04, MDCK cells, 96 h, CPE by ATPlite (converted)
[3] = target: HA H1 A/New Caledonia/20/99 (Influenza A virus (A/New Caledonia/20/1999(H1N1)), UniProt Q6WG00); experiment: biochemical; details: Competition binding (AlphaLISA), pIC50 H1 A/New Caledonia/20/99
[4] = target: HA H1 A/California/07/09 (Influenza A virus (A/California/07/2009(H1N1)), UniProt C3W5X2); experiment: biochemical; details: Competition binding (AlphaLISA), pIC50 H1 A/California/07/09

Structure (SMILES)	IC50 [1]	EC50 (H1N1 A/PR/8/34-MA)	EC50 [2]	EC50 (H1N1 A/California/07/09)	CC50 (in vitro)	EC50 (H5N1 A/Vietnam/1203/04)	IC50 [3]	IC50 [4]	Virus neutralization assay (VNA), pEC50 H1N1 A/New Caledonia/20/99 [2]	Virus neutralization assay (VNA), pEC50 H1N1 A/California/07/09 (H1N1 A/California/07/09)	Virus neutralization assay (VNA), pEC50 H5N1 A/Vietnam/1203/04 (H5N1 A/Vietnam/1203/04; MDCK cells, CPE by ATPlite)
COC(=O)C(c1ccccc1)C1CCN(C(=O)c2cccc(-c3nc4ccc(OC)cc4[nH]3)c2)CC1 (stereo not shown) [Example 123]	12600 nM	2510 nM	1580 nM	5010 nM	> 50100 nM	50100 nM	501 nM	631 nM	–	–	–
COC(=O)C(c1ccccc1)C1CCN(C(=O)c2cccc(-c3nc4ccc(OC)cc4s3)c2)CC1 (stereo not shown) [Example 105]	2000 nM	2000 nM	1000 nM	3160 nM	> 50100 nM	12600 nM	100 nM	126 nM	–	–	–
COC(=O)[C@@H](c1ccccc1)C1CCN(C(=O)c2cccc(-c3nc4ccc(OC)cc4s3)c2)CC1 [Example 65]	631 nM	631 nM	501 nM	1000 nM	39800 nM	25100 nM	50.1 nM	100 nM	–	–	–
CCOC(=O)[C@@H](c1ccccc1)N1CCN(C(=O)c2cccc(-c3ccc(OC)cc3)c2)CC1 [Example 114]	398 nM	2510 nM	1260 nM	2000 nM	3980 nM	31600 nM	126 nM	100 nM	–	–	–
COC(=O)C(c1ccccc1)N1CCN(C(=O)c2cccc(-c3ccc(OC)cc3)c2)CC1 (stereo not shown) [Example 83]	2510 nM	1000 nM	–	–	39800 nM	–	200 nM	398 nM	6.2	5.7	4.8
Cc1nnc([C@@H](c2ccccc2)N2CCN(C(=O)c3cccc(-c4cnc5ccccc5c4)c3)CC2)o1 [Example 76]	10000 nM	–	631 nM	1260 nM	15800 nM	31600 nM	158 nM	200 nM	–	–	–
CNc1ccc2oc(-c3cccc(C(=O)N4CCN(C(c5ccccc5)c5nnc(C)o5)CC4)c3)nc2c1 (stereo not shown) [Example 39]	1580 nM	–	200 nM	316 nM	15800 nM	10000 nM	31.6 nM	25.1 nM	–	–	–
NCc1nnc(C(c2ccccc2)N2CCN(C(=O)c3cccc(-c4nc5cc(C(F)(F)F)ccc5o4)c3)CC2)o1 (stereo not shown) [Example 75]	3980 nM	–	631 nM	1000 nM	10000 nM	7940 nM	158 nM	200 nM	–	–	–
COC(=O)C(c1ccccc1)N1CCN(C(=O)c2cccc(-c3nc4ccc(OC)cc4s3)n2)CC1 (stereo not shown) [Example 78]	25100 nM	–	631 nM	1260 nM	> 50100 nM	50100 nM	316 nM	631 nM	–	–	–
Cc1nnc([C@@H](c2ccccc2)N2CCN(C(=O)c3cccc(-c4nc5c(C)cccc5o4)c3)CC2)o1 [Example 32]	3980 nM	–	158 nM	316 nM	15800 nM	25100 nM	79.4 nM	63.1 nM	–	–	–
Cc1nnc(C(c2ccccc2)N2CCN(C(=O)c3cc(-c4nc5cc(OC(F)(F)F)ccc5o4)ccn3)CC2)o1 (stereo not shown) [Example 28]	501 nM	–	158 nM	200 nM	15800 nM	3980 nM	20 nM	15.8 nM	–	–	–
Cc1nc(C(c2ccccc2)N2CCN(C(=O)c3cccc(-c4nc5cc(C(F)(F)F)ccc5o4)c3)CC2)n[nH]1 (stereo not shown) [Example 116]	5010 nM	–	1580 nM	1580 nM	50100 nM	> 50100 nM	398 nM	501 nM	–	–	–
CC(=O)Nc1ccc2oc(-c3ccnc(C(=O)N4CCN(C(c5ccccc5)c5n[nH]c(C)n5)CC4)c3)nc2c1 (stereo not shown) [Example 5]	501 nM	–	6.31 nM	15.8 nM	> 50100 nM	1260 nM	15.8 nM	25.1 nM	–	–	–
CNC(=O)N(Cc1ccccc1)C1CCN(C(=O)c2cccc(-c3nc4ccc(OC)cc4s3)c2)CC1 [Example 118]	25100 nM	–	1260 nM	7940 nM	2000 nM	31600 nM	316 nM	251 nM	–	–	–
Cc1nnc(C(c2ccccc2)N2CCN(C(=O)c3cccc(-c4nc5cccnc5o4)c3)CC2)o1 (stereo not shown) [Example 129]	31600 nM	–	2000 nM	3980 nM	> 50100 nM	> 50100 nM	501 nM	631 nM	–	–	–
COC(=O)C(c1ccccc1)N1CCN(C(=O)c2cccc(-c3nc4cc(OC(F)(F)F)ccc4o3)c2)CC1 (stereo not shown) [Example 23]	398 nM	–	126 nM	158 nM	> 50100 nM	20000 nM	10 nM	20 nM	–	–	–
COC(=O)C(c1ccccc1)N1CCN(C(=O)c2cccc(-c3nc4cc(OC)ccc4o3)c2)CC1 (stereo not shown) [Example 13]	501 nM	–	50.1 nM	79.4 nM	50100 nM	3160 nM	6.31 nM	7.94 nM	–	–	–
Cn1ccc(C(c2ccccc2)N2CCN(C(=O)c3cccc(-c4nc5cc(C(F)(F)F)ccc5o4)c3)CC2)n1 (stereo not shown) [Example 53]	20000 nM	–	398 nM	1000 nM	> 50100 nM	> 50100 nM	3980 nM	5010 nM	–	–	–
COC(=O)C(c1ccccc1)N1CCN(C(=O)c2cccc(-c3nc4ccncc4o3)c2)CC1 (stereo not shown) [Example 43]	1260 nM	–	251 nM	398 nM	> 50100 nM	10000 nM	25.1 nM	31.6 nM	–	–	–
[2H]C([2H])([2H])c1nnc(C(c2ccccc2)N2CCN(C(=O)c3cccc(-c4nc5cc(C(F)(F)F)ccc5o4)c3)CC2)o1 (stereo not shown) [Example 70]	3980 nM	–	631 nM	501 nM	> 50100 nM	> 50100 nM	158 nM	158 nM	–	–	–
COC(=O)[C@@H](c1ccccc1)N1CCN(C(=O)c2cccc(-c3nc4cc(C(F)(F)F)ccc4o3)c2)[C@H](C(N)=O)C1 [Example 113]	25100 nM	–	1580 nM	1260 nM	> 50100 nM	> 50100 nM	631 nM	501 nM	–	–	–
COC(=O)C(c1ccccn1)C1CCN(C(=O)c2cccc(-c3nc4ccc(OC)cc4s3)c2)CC1 (stereo not shown) [Example 66]	794 nM	–	501 nM	1000 nM	20000 nM	12600 nM	63.1 nM	100 nM	–	–	–
Cc1nnc([C@@H](c2ccccc2)N2CCN(C(=O)c3cc(-c4nc5cc(C(F)(F)F)ccc5o4)ccn3)CC2)o1 [Example 17]	631 nM	–	200 nM	126 nM	7940 nM	3980 nM	31.6 nM	15.8 nM	–	–	–
Cc1nnc([C@@H](c2ccccc2)N2CCN(C(=O)c3cc(-c4nc5cc(C(F)(F)F)ccc5o4)ccc3F)CC2)o1 [Example 45]	7940 nM	–	316 nM	251 nM	> 50100 nM	50100 nM	100 nM	63.1 nM	–	–	–
COc1ccc2nc(-c3cccc(C(=O)N4CCN(C(c5ccccc5)c5nnc(C)o5)CC4)c3)sc2c1 (stereo not shown) [Example 71]	1000 nM	–	631 nM	794 nM	> 50100 nM	7940 nM	100 nM	100 nM	–	–	–
COC(=O)[C@@H](c1ccccc1)N1CCN(C(=O)c2cccc(-c3nc4cc(C(F)(F)F)ccc4o3)c2)[C@@H](CC(N)=O)C1 [Example 58]	1000 nM	–	398 nM	398 nM	39800 nM	5010 nM	31.6 nM	39.8 nM	–	–	–
Cc1nnc([C@@H](c2ccccc2)N2CCN(C(=O)c3cccc(-c4nc5cccc(C)c5o4)c3)CC2)o1 [Example 77]	10000 nM	–	631 nM	1260 nM	3980 nM	> 50100 nM	200 nM	251 nM	–	–	–
COC(=O)[C@@H](c1ccccc1)N1CCN(C(=O)c2cccc(-c3nc4ccccc4s3)c2)CC1 [Example 33]	398 nM	–	158 nM	501 nM	39800 nM	7940 nM	31.6 nM	50.1 nM	–	–	–
COCCNC(=O)C(c1ccccc1)N1CCN(C(=O)c2cccc(-c3nc4ccc(OC)cc4s3)c2)CC1 (stereo not shown) [Example 97]	631 nM	–	1000 nM	1000 nM	10000 nM	3980 nM	79.4 nM	100 nM	–	–	–
